The values that follow are results of earlier work, collected in paper PMC5563391 (Investigational new drugs, 2015).

The test system of this data set is patients with CML or Ph+ ALL. Particulars: phase 1 study; cited from earlier work.

As for `CO[C@@H](C(=O)N1Cc2n[nH]c(NC(=O)c3ccc(N4CCN(C)CC4)cc3)c2C1)c1ccccc1` [danusertib], the patients with responses is listed as 6 of 23.
